Experimental data taken from patent US20190183124A1, “METHOD FOR CONTROLLING PESTS IN MODIFIED PLANTS” (BASF SE, priority 2016, published 2019).

System: Sweetpotato whitefly (Bemisia tabaci)
Experiment: Action on Sweetpotato whitefly (Bemisia tabaci) on soybean plants, greenhouse foliar spray
Type: in vivo
Settings: for Mean whitefly nymph response (Whitefly Nymphs D.A.A.-2): dose 60 ppm a.i. (text: 60 g a.i./ha, 200 L/ha), two applications 7 days apart, whole plant counts 3 days after 2nd application, greenhouse
Procedure: The active compound tested was formulated as a SL-type formulation.
Action on Sweetpotato whitefly (Bemisia tabaci)
A randomized block, 2 by 3 factorial experimental design was utilized to determine the interaction effects and main effects of two explanatory variables: product rate and soybean variety on the response variable, whitefly mortality. The study was conducted under greenhouse conditions and utilized lntacta™ (Bt-traited) and ‘BMX Potencia’ (non-traited) varieties at growth stage 11, respectively. All study plants were infested with Bemisia tabaciadults prior to application.
Formulated material of compound I-1 was combined with water and applied at concentration of 60 gai/ha with a CO2 pressurized spray boom at 200 L/ha water volume. The first application was timed to a threshold whitefly infestation, and was followed by a second application 7 days later.
Assessments were conducted by taking whole plant counts of adult and immature whiteflies at 3 days after the second application.

**Q.** How did the “Effect against whiteflies in Intacta soybean relative to BMX Potencia” value (60 g a.i./ha, 3 days after second application, Intacta vs BMX Potencia soybean) turn out when `CCN(C(=O)c1cnn(C(C)C(C)C)c1C)c1ccnnc1` (stereo not drawn) [I-1, 1-(1,2-dimethylpropyl)-N-ethyl-5-methyl-N-pyridazin-4-yl-pyrazole-4-carboxamide] was run?
**A.** synergistic effect

**Q.** What about the “Mean whitefly nymph response (Whitefly Nymphs D.A.A.-2)” value (BMX Potencia (non-traited) soybean) of the same compound?
**A.** 4.91

**Q.** And the “Mean whitefly nymph response (Whitefly Nymphs D.A.A.-2)” value (Intacta (Bt-traited) soybean)?
**A.** 0.57
